Data from BindingDB's records for patent US20190276450 (Abbvie, 2019).

Columns and labels:
[1] = biological target: Non-receptor tyrosine-protein kinase TYK2 (Homo sapiens, UniProt P29597); assay: TYK2 (TYK2/JAK2 PSTAT4 T-BLAST) Alpha Screen Assay
Protocol: IL-12 is known to transduce its signal through IL-12 receptor via Jak2 and/or Tyk2. For that reason, the activity against Tyk2/Jak2 was measured by determining the inhibition of IL-12 induced phosphorylation of STAT4 in T-blast cells. […] See, e.g., Sohn et al., J. Immunology (2013) 2205-2216.

[2] = biological target: Tyrosine-protein kinase JAK1 (Homo sapiens, UniProt P23458); assay: JAK1 (PSTAT3 TF1) Alpha Screen Assay
Protocol: IL-6 is known to transduce its signal through IL-6 receptor via Jak1. Activity against Jak was therefore measured by determining inhibition of IL-6 induced phosphorylation of STAT3 in TF1 cells. From these tests, the EC50 (effective concentration for 50% maximal response) values were determined in 1 μM for the test compounds.

[3] = biological target: Tyrosine-protein kinase JAK2 (Homo sapiens, UniProt O60674); assay: JAK2 (PSTAT5 UT7) Alpha Screen Assay
Protocol: Erythropoietin (EPO) is known to transduce its signal through EPO receptor via Jak2. Activity against Jak2 was therefore measured by determining inhibition of EPO induced phosphorylation of […] in UT7 cells. From these tests, the EC50 (effective concentration for 50% maximal response) values were determined in 1 μM for the test compounds.

Tyrosine-protein kinase JAK2, sequence (O60674 whole entry): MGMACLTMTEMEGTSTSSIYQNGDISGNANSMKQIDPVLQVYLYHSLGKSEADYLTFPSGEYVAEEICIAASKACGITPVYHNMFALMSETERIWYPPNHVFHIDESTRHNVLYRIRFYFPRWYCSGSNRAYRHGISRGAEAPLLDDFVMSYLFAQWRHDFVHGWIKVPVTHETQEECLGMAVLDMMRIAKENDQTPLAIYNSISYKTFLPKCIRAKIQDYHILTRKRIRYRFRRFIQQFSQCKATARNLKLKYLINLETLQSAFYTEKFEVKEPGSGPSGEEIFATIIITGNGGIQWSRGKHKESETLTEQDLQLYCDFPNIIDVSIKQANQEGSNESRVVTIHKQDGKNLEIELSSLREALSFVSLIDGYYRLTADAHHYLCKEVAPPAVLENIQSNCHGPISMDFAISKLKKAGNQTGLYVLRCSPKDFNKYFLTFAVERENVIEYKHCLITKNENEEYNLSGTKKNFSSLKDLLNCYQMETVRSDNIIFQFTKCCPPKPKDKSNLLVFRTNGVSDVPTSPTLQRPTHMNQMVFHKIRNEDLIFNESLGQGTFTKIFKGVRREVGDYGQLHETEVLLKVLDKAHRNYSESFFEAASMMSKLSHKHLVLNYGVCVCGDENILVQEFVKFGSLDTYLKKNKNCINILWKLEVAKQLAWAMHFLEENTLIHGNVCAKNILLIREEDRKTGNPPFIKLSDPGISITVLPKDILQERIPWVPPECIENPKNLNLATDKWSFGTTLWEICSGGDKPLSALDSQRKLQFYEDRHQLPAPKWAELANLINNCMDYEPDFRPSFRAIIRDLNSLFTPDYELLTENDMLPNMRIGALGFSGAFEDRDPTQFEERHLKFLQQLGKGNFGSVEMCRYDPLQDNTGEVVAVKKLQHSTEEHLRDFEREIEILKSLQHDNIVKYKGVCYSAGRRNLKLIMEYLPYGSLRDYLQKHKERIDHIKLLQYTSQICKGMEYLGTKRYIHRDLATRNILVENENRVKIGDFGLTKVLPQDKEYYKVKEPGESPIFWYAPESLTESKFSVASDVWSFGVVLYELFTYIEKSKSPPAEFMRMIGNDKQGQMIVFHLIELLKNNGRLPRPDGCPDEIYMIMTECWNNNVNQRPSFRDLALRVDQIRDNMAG
Tyrosine-protein kinase JAK1, sequence (P23458 whole entry): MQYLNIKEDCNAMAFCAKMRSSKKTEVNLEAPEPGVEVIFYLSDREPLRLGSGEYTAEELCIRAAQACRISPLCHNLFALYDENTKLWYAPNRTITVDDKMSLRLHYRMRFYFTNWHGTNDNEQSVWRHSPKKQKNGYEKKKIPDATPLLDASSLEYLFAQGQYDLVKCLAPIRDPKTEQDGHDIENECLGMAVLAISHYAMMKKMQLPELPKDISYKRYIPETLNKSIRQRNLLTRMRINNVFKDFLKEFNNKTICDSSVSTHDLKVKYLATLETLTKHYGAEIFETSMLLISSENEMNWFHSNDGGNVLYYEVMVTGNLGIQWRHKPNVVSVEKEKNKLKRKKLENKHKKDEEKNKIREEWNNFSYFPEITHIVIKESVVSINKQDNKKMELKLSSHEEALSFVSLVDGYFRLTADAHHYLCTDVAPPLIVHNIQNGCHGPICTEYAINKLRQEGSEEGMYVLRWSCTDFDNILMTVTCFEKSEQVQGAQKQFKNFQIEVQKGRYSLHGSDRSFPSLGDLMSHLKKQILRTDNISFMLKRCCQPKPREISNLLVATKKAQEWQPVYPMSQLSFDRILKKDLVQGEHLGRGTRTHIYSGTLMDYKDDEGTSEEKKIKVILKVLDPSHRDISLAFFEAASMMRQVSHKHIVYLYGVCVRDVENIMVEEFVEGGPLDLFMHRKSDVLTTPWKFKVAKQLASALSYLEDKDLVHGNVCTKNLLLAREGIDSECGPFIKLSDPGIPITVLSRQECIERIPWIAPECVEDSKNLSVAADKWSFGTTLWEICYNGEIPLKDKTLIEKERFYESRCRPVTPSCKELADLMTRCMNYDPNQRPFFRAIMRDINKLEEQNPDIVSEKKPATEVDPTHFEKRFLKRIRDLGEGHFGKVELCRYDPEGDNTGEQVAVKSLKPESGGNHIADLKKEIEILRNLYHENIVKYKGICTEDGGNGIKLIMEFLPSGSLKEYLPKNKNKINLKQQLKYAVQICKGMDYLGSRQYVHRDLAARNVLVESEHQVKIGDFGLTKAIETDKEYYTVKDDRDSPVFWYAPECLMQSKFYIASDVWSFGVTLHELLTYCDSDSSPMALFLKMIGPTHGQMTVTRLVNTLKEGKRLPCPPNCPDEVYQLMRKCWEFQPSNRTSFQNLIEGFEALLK
Non-receptor tyrosine-protein kinase TYK2, sequence (P29597 whole entry): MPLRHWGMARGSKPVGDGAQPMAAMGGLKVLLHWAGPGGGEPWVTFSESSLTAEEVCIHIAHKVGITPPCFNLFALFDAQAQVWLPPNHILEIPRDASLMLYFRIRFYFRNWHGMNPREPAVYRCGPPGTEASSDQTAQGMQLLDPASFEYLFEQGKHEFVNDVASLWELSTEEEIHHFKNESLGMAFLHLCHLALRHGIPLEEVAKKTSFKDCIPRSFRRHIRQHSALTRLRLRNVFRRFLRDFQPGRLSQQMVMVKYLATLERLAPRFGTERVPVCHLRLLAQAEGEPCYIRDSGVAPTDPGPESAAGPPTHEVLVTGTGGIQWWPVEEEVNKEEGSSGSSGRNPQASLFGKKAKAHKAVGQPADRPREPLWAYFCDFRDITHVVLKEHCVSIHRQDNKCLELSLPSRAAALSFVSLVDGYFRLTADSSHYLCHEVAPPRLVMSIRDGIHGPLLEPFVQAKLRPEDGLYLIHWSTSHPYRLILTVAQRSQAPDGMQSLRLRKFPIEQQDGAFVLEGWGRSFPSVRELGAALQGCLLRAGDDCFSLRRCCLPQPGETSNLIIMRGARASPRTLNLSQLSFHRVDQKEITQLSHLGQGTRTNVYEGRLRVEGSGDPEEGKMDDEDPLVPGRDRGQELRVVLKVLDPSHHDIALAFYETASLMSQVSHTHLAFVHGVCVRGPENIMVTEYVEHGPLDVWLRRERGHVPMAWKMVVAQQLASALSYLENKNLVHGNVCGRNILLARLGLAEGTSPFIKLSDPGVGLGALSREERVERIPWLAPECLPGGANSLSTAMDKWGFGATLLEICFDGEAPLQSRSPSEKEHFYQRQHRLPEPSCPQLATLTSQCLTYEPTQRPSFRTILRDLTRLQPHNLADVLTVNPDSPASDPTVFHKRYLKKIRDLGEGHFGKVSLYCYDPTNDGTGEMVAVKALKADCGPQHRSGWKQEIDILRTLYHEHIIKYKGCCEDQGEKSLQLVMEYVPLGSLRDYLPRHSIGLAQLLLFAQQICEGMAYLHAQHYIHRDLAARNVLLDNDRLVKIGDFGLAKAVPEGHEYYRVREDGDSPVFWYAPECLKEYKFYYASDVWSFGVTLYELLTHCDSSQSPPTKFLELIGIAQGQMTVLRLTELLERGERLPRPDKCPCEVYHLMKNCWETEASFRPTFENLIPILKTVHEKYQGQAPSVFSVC

Row | Structure (SMILES) | EC50 [1] | EC50 [2] | EC50 [3]
1 | COCc1cc(-c2cn(C)c3cnc(NC(C)=O)cc23)nc([C@]2(CO)CCOC2)c1 [US20190276450, Example 22] | 0.146 µM | 10.5 µM | > 25 µM
2 | COCc1cc(-c2cn(C)c3cnc(NC(=O)CO)cc23)nc([C@]2(OC)CCOC2)c1 [US20190276450, Example 24] | 0.092 µM | > 100 µM | > 25 µM
3 | COCCOc1cc(-c2cn(C)c3cnc(NC(C)=O)cc23)nc([C@]2(OC)CCOC2)c1 [US20190276450, Example 25] | 0.025 µM | 49 µM | > 25 µM
4 | CO[C@@]1(c2cc(C(F)F)cc(-c3cn(C)c4cnc(NC(=O)CO)cc34)n2)CCOC1 [US20190276450, Example 26] | 0.05 µM | > 25 µM | > 25 µM
